Experiments:
[1] = test system: U87 human glioma cells; test: In vitro apoptosis assay (Annexin V-FITC/propidium iodide, FACS); format: cell-based
Protocol: (§1) Human glioma cells (U-87) and HBMVECells were seeded into a 25-mL tissue-culture flask. After 24 h (about 60–70% confluencey), cells were treated with either […] (50 or 100 micrograms/mL) or staurosporine (positive control; 5 μM), a known inducer of apoptosis (Tamaoki, T., et al., Staurosporine, a potent inhibitor of phospholipid/Ca^++ dependent protein kinase, Biochem. Biophys. Res. Commun. 135: 397–402 [1986]; Matsumoto, H., and Sasaki, Y., Staurosporine, a protein kinase C inhibitor interferes with proliferation of arterial smooth muscle cells, Biochem. Biophys. Res. Commun. 158:105–109 [1989]). U-87 cells were returned to the CO2 incubator and incubated overnight. The following day, cells were washed twice with fresh growth medium and cells prepared for FACS analysis as described hereinbelow.
The changes in plasma membrane are one of the earliest events in cell death. In apoptotic cells the membrane phospholipid phosphatidylserine (PS) is translocated from the inner to the outer leaflet of the cell membrane in the early phases of apoptosis. Annexin V is a Ca^2+-dependent, phospholipid-binding protein that binds to PS with high affinity. Consequently, Annexin V (PharMingen) conjugated to a label, such as fluorescein isothiocyanate (FITC) or biotin, serves as a sensitive probe for flow cytometry analysis of cells that are undergoing apoptosis. […] (PharMingen; Vermes, I. et al., A novel assay for apoptosis. Flow cytometric detection of phosphatidylserine expression on early apoptotic cells using fluorescein labelled Annexin V, J. Immunol. Meth. 184:39–51 [1995]). Concurrently, propidium iodide is typically used as a standard flow cytometric viability probe, because the intact cell membranes of viable cells exclude propidium iodide, whereas the cell membranes of dead and damaged cells are permeable to propidium iodide. Cells that stain positive for Annexin V and negative for propidium iodide are undergoing apoptosis; cells that stain positive for both Annexin V and propidium iodide are either at the end stage of apoptosis, are undergoing necrosis, or are already dead; and cells that stain negative for both Annexin V-biotin and propidium iodide are alive and not undergoing measurable apoptosis. Briefly, the cells were washed twice with cold PBS and then resuspended in 1× binding buffer (10 mM HEPES/NaOH, pH 7.4, 140 mM NaCl, 2.5 mM CaCl2; 4° C.) at a concentration of about 1×10^6 cells/mL. A 100-μL aliquot of cell suspension was transferred to 5-mL culture tubes, and 2.5 μL of Annexin V-FITC and 2.5-μL of propidium iodide (PharMingen) were added to each tube. The cell suspensions were gently mixed and incubated for 15 min at room temperature in the dark, after which 400 μL of binding buffer was added to each tube of cells. […]

[2] = test system: implanted RG2 glioma tumor in Wistar rats; test: In vivo apoptosis, intracarotid infusion, implanted tumor tissue (FACS); set-up: species or system rat; conditions: for apoptotic cells / necrotic cells / apoptosis / necrosis: RG2 tumor
Text: (§2) The changes in plasma membrane are one of the earliest events in cell death. In apoptotic cells the membrane phospholipid phosphatidylserine (PS) is translocated from the inner to the outer leaflet of the cell membrane in the early phases of apoptosis. Annexin V is a Ca^2+-dependent, phospholipid-binding protein that binds to PS with high affinity. Consequently, Annexin V (PharMingen) conjugated to a label, such as fluorescein isothiocyanate (FITC) or biotin, serves as a sensitive probe for flow cytometry analysis of cells that are undergoing apoptosis. […] (PharMingen; Vermes, I. et al., A novel assay for apoptosis. Flow cytometric detection of phosphatidylserine expression on early apoptotic cells using fluorescein labelled Annexin V, J. Immunol. Meth. 184:39–51 [1995]). Concurrently, propidium iodide is typically used as a standard flow cytometric viability probe, because the intact cell membranes of viable cells exclude propidium iodide, whereas the cell membranes of dead and damaged cells are permeable to propidium iodide. Cells that stain positive for Annexin V and negative for propidium iodide are undergoing apoptosis; cells that stain positive for both Annexin V and propidium iodide are either at the end stage of apoptosis, are undergoing necrosis, or are already dead; and cells that stain negative for both Annexin V-biotin and propidium iodide are alive and not undergoing measurable apoptosis. Briefly, the cells were washed twice with cold PBS and then resuspended in 1× binding buffer (10 mM HEPES/NaOH, pH 7.4, 140 mM NaCl, 2.5 mM CaCl2; 4° C.) at a concentration of about 1×10^6 cells/mL. A 100-μL aliquot of cell suspension was transferred to 5-mL culture tubes, and 2.5 μL of Annexin V-FITC and 2.5-μL of propidium iodide (PharMingen) were added to each tube. The cell suspensions were gently mixed and incubated for 15 min at room temperature in the dark, after which 400 μL of binding buffer was added to each tube of cells. The cells were then washed once with 1×binding buffer. Analysis by flow cytometry was then conducted immediately, and no later than within one hour. The resulting analytic FACS graphs were typically divided into four quadrants wherein the upper right (UR) quadrant represented the number of necrotic cells; the lower left (LL) quadrant represented the number of viable cells; the lower right (LR) quadrant represented the number of apoptotic cells; and the upper left (UL) represented cells of an intermediate category, which generally represents cell debris and DNA fragments. The percentage of gated events in each quadrant was used to determine the total percentage of apoptotic and necrotic cells in each cell suspension.
A rat tumor model, which consisted of intracranially implanted RG2 cells (rat glioma cell line) in Wistar rats, was employed to investigate whether any of several potassium channel activators induce selective apoptosis of tumor cells in vivo.
The techniques for RG2 cell propagation and maintenance in tissue culture have been described (Sugita, M. and Black, K. L., Cyclic GMP-specific phosphodiesterase inhibition and intracarotid bradykinin infusion enhances permeability into brain tumors, Cancer Res. 58(5):914–20 [1998]; Inamura et al. [1994]; Nakano, S. et al., Increased brain tumor microvessel permeability after intracarotid bradykinin infusion is mediated by nitric oxide, Cancer Res. 56(17):4027–31 [1996]). Briefly, RG2 cells derived from a rat glioma are kept frozen until use, then are thawed and maintained in a monolayer culture in F12 medium with 10% calf serum.
The Wistar rats (approximately 140–160 g body weight) were anesthetized with intra-peritoneal ketamine (50 mg/kg), and glial cells (1×10^5) were implanted into the right hemisphere, but not the contralateral hemisphere, by intracerebral injection suspended in 5 μL F12 medium (1–2% methylcellulose) by a Hamilton syringe. The implantation coordinates were 3-mm lateral to the bregma and 4.5 mm deep to the dural surface. […]

[3] = test system: contralateral normal brain tissue of Wistar rats with implanted RG2 tumor; test: In vivo apoptosis, intracarotid infusion, contralateral tissue (FACS); conditions: 20 μg/kg body mass bolus, positive control (FIG. 8J)
Text: (§3) The changes in plasma membrane are one of the earliest events in cell death. In apoptotic cells the membrane phospholipid phosphatidylserine (PS) is translocated from the inner to the outer leaflet of the cell membrane in the early phases of apoptosis. Annexin V is a Ca^2+-dependent, phospholipid-binding protein that binds to PS with high affinity. Consequently, Annexin V (PharMingen) conjugated to a label, such as fluorescein isothiocyanate (FITC) or biotin, serves as a sensitive probe for flow cytometry analysis of cells that are undergoing apoptosis. […] (PharMingen; Vermes, I. et al., A novel assay for apoptosis. Flow cytometric detection of phosphatidylserine expression on early apoptotic cells using fluorescein labelled Annexin V, J. Immunol. Meth. 184:39–51 [1995]). Concurrently, propidium iodide is typically used as a standard flow cytometric viability probe, because the intact cell membranes of viable cells exclude propidium iodide, whereas the cell membranes of dead and damaged cells are permeable to propidium iodide. […]

[4] = test system: 9L rat glioma cells; test: Cell proliferation assay (WST-1, OD 450 nm); format: cell-based; conditions: 1–100 μg/mL, 4 hours, dose-dependent (FIG. 1)
Protocol: (§4) Primary cell lines were prepared from human gliomas (glioblastoma multiforme [GBM] or astrocytoma) or established rat glioma cell lines (RG2, C6 and 9L) were used. Cultured human normal cell lines, brain microvessel endothelial cells (HBMVEC), or fetal astrocytes were used.
(§5) Cells (5×10^4 cells) were cultured in each well of 96-well microtiter culture plates and were allowed to achieve confluency to form a monolayer of cells in each well. For dose response studies cells were incubated with different concentrations (1–100 μg/mL) of NS-1619 or minoxidil sulfate for 4 hours at 37° C. in a CO2 (5%) incubator. Cells washed twice carefully with respective medium, and allowed to incubate overnight at 37° C. under 5% CO2. The following day, cells were incubated with WST-1 reagent (Boehringer Mannheim) at 37° C. in a CO2 (5%) incubator for 60–90 minutes, and optical density at 450 nm was measured with a 96-well plate reader. The magnitude of OD indicated the number of viable cells, greater the OD, higher the number of viable cells, correlated a standard curve of cell numbers.

[5] = test system: C6 rat glioma cells; test: Cell proliferation assay (WST-1, OD 450 nm); format: cell-based; conditions: 1–100 μg/mL, 4 hours, dose-dependent (FIG. 1)
Protocol: as §4, §5

[6] = test system: RG2 rat glioma cells; test: Cell proliferation assay (WST-1, OD 450 nm); format: cell-based
Protocol: as §4, §5

[7] = test system: human normal brain microvessel endothelial cells (HBMVEC); test: Cell proliferation assay (WST-1, OD 450 nm); format: cell-based
Protocol: as §4, §5

[8] = test system: human normal fetal astrocytes (HFA); test: Cell proliferation assay (WST-1, OD 450 nm); format: cell-based
Protocol: as §4, §5

[9] = test system: primary human GBM glioma cell line; test: Cell proliferation assay (WST-1, OD 450 nm); format: cell-based
Protocol: as §4, §5

[10] = test system: primary human astrocytoma cell line; test: Cell proliferation assay (WST-1, OD 450 nm); format: cell-based; conditions: 1–100 μg/mL, 4 hours, dose-dependent (FIG. 2)
Protocol: as §4, §5

[11] = test system: malignant 9L cells; test: In vitro apoptosis assay (Annexin V-FITC/propidium iodide, FACS); format: cell-based, rat; conditions: 50 μg/mL (FIG. 6E)
Text: as §2

[12] = test system: malignant C6 cells; test: as above; format: cell-based, rat; conditions: 50 μg/mL (FIG. 6C)
Text: as §2

[13] = test system: malignant RG2 cells; test: as above; format: cell-based, rat; conditions: 50 μg/mL (FIG. 6A)
Text: as §2

[14] = test system: primary human GBM cells; test: as above; format: cell-based; conditions: 50 μg/mL (FIG. 7A)
Text: as §3

[15] = test system: non-malignant HBMVEC; test: as above; format: cell-based, human; conditions: 50 μg/mL (FIG. 7C)
Protocol: as §1
The changes in plasma membrane are one of the earliest events in cell death. In apoptotic cells the membrane phospholipid phosphatidylserine (PS) is translocated from the inner to the outer leaflet of the cell membrane in the early phases of apoptosis. Annexin V is a Ca^2+-dependent, phospholipid-binding protein that binds to PS with high affinity. Consequently, Annexin V (PharMingen) conjugated to a label, such as fluorescein isothiocyanate (FITC) or biotin, serves as a sensitive probe for flow cytometry analysis of cells that are undergoing apoptosis. […]

[16] = test system: PTK activity in RG2 cell lysate; test: Protein tyrosine kinase (PTK) assay; format: biochemical, rat; conditions: 1–50 μM (FIG. 10)
Protocol: A PTK assay kit (The Oncogene Research Products, Boston, Mass.) was used to determine the presence and relative amounts of protein kinase activity in tissue cytosols and cell extracts. Briefly, 1×10^4 RG2 cells seeded in a 50-mL culture flask, and allowed to achieve confluency to form a monolayer at 37° C. in a CO2 incubator.
Briefly, RG2 cells were harvested after trypsinization, and cells were pelleted by centrifugation. Cells were resuspended with extraction buffer (20 mM Tris, pH 7.4, 50 mM NaCl, 1 mM EDTA, 1 mM EGTA, 0.2 mM PMSF, 1 μg/mL pepstatin, 0.5 μg/mL leupetin, 0.2 mM Na3VO4, 5 mM mercaptoethanol, 0.1% Triton X-100), and cells were lysed using a cell homogenizer. After centrifugation, supernatant was separated from the pellet for PTK assay. The supernatant was treated with superoxide dismutase. Pervanadate (100 mM) was used in the PTK assay to inhibit […] activity, and protein concentration was determined by Lowry's method using a Bio-Rad protein assay kit. […]
Assay for PTK activity in RG2 cell-lysates was then performed according to the protocol supplied by the PTK assay kit's manufacturer. After adding the stop solution, absorbance measured in each well at 450 nm using a Spectramax Plus (Molecular Devices, Sunnyvale, Calif.).

[17] = Solubility in water; format: physicochemical
Text: The skilled practitioner is cautious in regulating the final concentration of solvent in the infusion solution to avoid solvent-related toxicity. For example, a final ethanol concentration in an infusion solution up to 5–10% (v/v) is tolerated by most mammalian subjects with negligible toxicity.

[18] = 5 μM, positive control (FIG. 5C)
[19] = 20 μg/kg body mass bolus, positive control (FIG. 8I)
[20] = 50 μg/kg body mass, two consecutive daily doses, intracarotid (FIG. 8C)
[21] = 100 μg/kg body mass, three consecutive daily bolus doses (FIG. 9C)
[22] = 100 μg/kg body mass/day for two days, another rat (FIG. 8G)
[23] = 100 μg/kg body mass/day for two days, one rat (FIG. 8E)

CN[C@@H]1C[C@H]2O[C@@](C)([C@@H]1OC)n1c3ccccc3c3c4c(c5c6ccccc6n2c5c31)C(=O)NC4 [staurosporin]
apoptotic cells [1, 18]: 31%
necrotic cells [1, 18]: 27%
apoptotic cells [2, 19]: 35%
necrotic cells [2, 19]: 17%
apoptotic cells [3]: 5%
necrotic cells [3]: 11%

O=c1[nH]c2cc(C(F)(F)F)ccc2n1-c1cc(C(F)(F)F)ccc1O [NS-1619, 1,3-dihydro-1-[2-hydroxy-5-(trifluoromethyl)phenyl]-5-(trifluoromethyl)-2H-benzimidazol-2-one]
cell proliferation [4]: significantly blocks cell proliferation
cell proliferation [5]: significantly blocks cell proliferation
cell death ([6]; 50 μg/mL (FIG. 3)): 70%
cell proliferation ([6]; 1–100 μg/mL, 4 hours, dose-dependent (FIG. 1)): significantly blocks cell proliferation
sensitivity (cell death) ([7]; HBMVEC, 50 μg/mL (FIG. 4)): insensitive
cell proliferation ([7]; normal HBMVEC, 1–100 μg/mL, 4 hours (FIG. 2)): without affecting
sensitivity (cell death) ([8]; HFA, 50 μg/mL (FIG. 4)): insensitive
cell proliferation ([8]; normal HFA, 1–100 μg/mL, 4 hours (FIG. 2)): without affecting
cell death ([9]; 50 μg/mL (FIG. 4)): 90%
cell proliferation ([9]; 1–100 μg/mL, 4 hours, dose-dependent (FIG. 2)): significantly blocked cell proliferation
cell proliferation [10]: significantly blocked cell proliferation
apoptotic cells ([1]; 50 μg/mL): 21%
necrotic cells ([1]; 50 μg/mL): 14%
apoptotic cells [11]: 42%
necrotic cells [11]: 32%
apoptotic cells [12]: 25%
necrotic cells [12]: 35%
apoptosis [13]: 29%
necrosis [13]: 29%
apoptosis [14]: 24%
necrosis [14]: 49%
apoptosis [15]: 4%
induction of necrosis [15]: did not significantly induce
apoptotic cells [2, 20]: 28%
necrotic cells [2, 20]: 24%
apoptosis [2, 21]: 55%
necrosis [2, 21]: 9%
apoptosis [2, 22]: 34%
necrosis [2, 22]: 9%
apoptosis [2, 23]: 44%
necrosis [2, 23]: 15%
cell death in tumor tissue ([2]; infusion for two or three consecutive days at up to 100 μg/kg body mass): inducing a selective cell death in tumor tissue
PTK activity [16]: did not significantly affect PTK activity
solubility in water [17]: not easily dissolved in water

Reference: US7211561B2, “Method for inducing selective cell death of malignant cells by activation of calcium-activated potassium channels (KCa)” (Cedars-Sinai Medical Center, priority 2001, dated 2007)
